Data published in US20030017186A1, “Carboxylic acid fluorides as pesticides” (priority 1999, published 2003).

Tests used:
[1] = system: wood pests (house longhorn beetle, common furniture beetle); assay: Fumigation test, wood pests; format: in vivo, Hylotrupes bajulus, Anobium punctatum
Excerpt: (§1) The test organisms, separated by species, were placed into a glass vessel measuring 30 cm×30 cm×60 cm, which was sealed with a glass lid so as to be airtight. The adults and the larvae of the mealworm beetle (Tenebrio molitor) and the broad-horned flour beetle (Gnathocerus cornutus) were placed into small glass vessels approximately 5 cm in diameter, which were closed with a gauze lid and in which they could freely move about. The larvae of the rice weevil had burrowed into seeds of grain. The wood pest larvae were inserted into small blocks of wood measuring 5 cm×2.5 cm×2 cm. The openings were sealed with wads of cotton wool. Only one each of the larvae of the house longhorn beetle (Hylotrupes bajulus) was inserted into a piece of wood, while 6-8 larvae of the common furniture beetle (Anobium punctatum) were inserted into each piece of wood.
(§2) The respective gas was then introduced into the fumigation vessel through a gas line from a gas tank that contained the specified amount of gas. After a defined time period, the fumigation vessel was purged with compressed air. The discharged gas was purified by an attached gas scrubber.
(§3) The beetles were observed until they died. This point was recorded for each species. The larvae of the wood pests as well as the larvae of the rice weevil (Sitophilus oryzae) had to be picked out of the wood or the grain to check their condition. If any of the animals were still alive, the wooden test blocks remaining in the vessel were fumigated again and were reexamined after the corresponding time span had elapsed. The same number of animals in the untreated control was also checked at each point.
(§4) The vitality of the animals was checked at certain time intervals. The beetles could be observed through the fumigation vessel. This was also true for the larvae of the mealworm beetle and the broad-horned flour beetle. The wooden test blocks of the wood pest larvae were opened with hammer and chisel. Tweezers were used to pull the rice weevil larvae out of the grain seeds. The exact time intervals and the number of the evaluated pests were documented in the test results.

[2] = system: Rice weevil (Sitophilus oryzae); assay: Fumigation test in glass vessel, rice weevils; format: in vivo; conditions: SITTOR beetles
wood and storage pests = assay: Fumigation test, wood and storage pests (overall statements); format: in vivo
Excerpt: as §1, §2, §3, §4

[3] = system: House longhorn beetle (Hylotrupes bajulus); assay: Fumigation test in glass vessel, house longhorn beetles; format: in vivo
[4] = system: Saw-toothed grain beetle (Oryzaephilus surinamensis); assay: Fumigation test in glass vessel, saw-toothed grain beetles; format: in vivo; conditions: ORYZSA beetles
[5] = system: Mealworm beetle (Tenebrio molitor) larvae; assay: Fumigation test in glass vessel, mealworm beetle larvae; format: in vivo; conditions: TENEMO larvae
[6] = Example 4, gas 36.5 g/m^3, 19.3° C., 54% rel. air humidity
[7] = Example 5, ACF 50.6/48.2/51.4 g/m^3, SF 47.4/44.6/41 g/m^3 (1st/2nd/3rd fumigation), 23/23/22° C.
[8] = Example 7, ACF 53.0/54.6/0 g/m^3, second gas (SF) 43.6/41.4/39.8 g/m^3 (1st/2nd/3rd fumigation), 20.0/20.2/19.8 C.
[9] = HYLOBA beetles, Example 5, ACF 50.6/48.2/51.4 g/m^3, SF 47.4/44.6/41 g/m^3 (1st/2nd/3rd fumigation), 23/23/22° C.
[10] = HYLOBA beetles, Example 7, ACF 53.0/54.6/0 g/m^3, second gas (SF) 43.6/41.4/39.8 g/m^3 (1st/2nd/3rd fumigation), 20.0/20.2/19.8 C.

Structure (SMILES): CC(=O)F [ACF, acetyl fluoride]
- Effectiveness against wood pests ([1]; Conclusion, especially at temperatures in excess of 20° C.): very effective
- Condition of the larvae of the wood pests after 24 hours ([1]; Example 4, house longhorn beetle larvae and 2 common furniture beetle larvae, gas 36.5 g/m^3, 19.3° C., evaluated only after 24 hours): dead
- Number alive, 1 hr. after Start of Fumigation [2, 6]: 0
- Number dead, 1 hr. after Start of Fumigation [2, 6]: 25
- Number alive, 30 min. after Start of Fumigation [2, 7]: 0
- Number dead, 30 min. after Start of Fumigation [2, 7]: 15
- Number alive, 30 min. after 1st Fumigation [2, 8]: 0
- Number dead, 30 min. after 1st Fumigation [2, 8]: 15
- Effectiveness against exposed beetles and larvae (wood and storage pests; Conclusion of Examples 1-5): very effective
- Comparison of action on wood and storage pests (wood and storage pests; Example 7, against several of the pest species tested): superior to chlorodifluoroacetyl fluoride
- Time after which the house longhorn beetles were dead ([3]; Example 4, 3 house longhorn beetles, gas 36.5 g/m^3, 19.3° C.): 15 min
- Number alive, 30 min. after Start of Fumigation [3, 9]: 0
- Number dead, 30 min. after Start of Fumigation [3, 9]: 4
- Number alive, 30 min. after 1st Fumigation [3, 10]: 3
- Number alive, 1 hr. after 1st Fumigation [3, 10]: 0
- Number dead, 30 min. after 1st Fumigation [3, 10]: 3
- Number dead, 1 hr. after 1st Fumigation [3, 10]: 6
- Number alive, 1 hr. after Start of Fumigation [4, 6]: 0
- Number dead, 1 hr. after Start of Fumigation [4, 6]: 25
- Number alive, 30 min. after Start of Fumigation [4, 7]: 0
- Number dead, 30 min. after Start of Fumigation [4, 7]: 15
- Number alive, 30 min. after 1st Fumigation [4, 8]: 0
- Number dead, 30 min. after 1st Fumigation [4, 8]: 15
- Number alive, 1 hr. after Start of Fumigation [5, 6]: 5
- Number alive, 2 hrs. after Start of Fumigation [5, 6]: 0
- Number dead, 1 hr. after Start of Fumigation [5, 6]: 5
- Number dead, 2 hrs. after Start of Fumigation [5, 6]: 10
- Number alive, 30 min. after Start of Fumigation [5, 7]: 0
- Number dead, 30 min. after Start of Fumigation [5, 7]: 10
- Number alive, 30 min. after 1st Fumigation [5, 8]: 5
- Number alive, 1 hr. after 1st Fumigation [5, 8]: 0
- Number dead, 30 min. after 1st Fumigation [5, 8]: 5
- Number dead, 1 hr. after 1st Fumigation [5, 8]: 10
